In BindingDB's records for doi:10.1016/0968-0896(96)00134-4 (Parke-Davis Pharmaceutical Research, 1996):

molecular target: T1, Dimer of Gag-Pol polyprotein [489-587] (Human immunodeficiency virus 1, UniProt P12497); assay: Protease Inhibition Assay; conditions: pH 4.7; 37 °C
T1 construct: 489-587
Protocol: For determination of IC50 values, HIV-1 protease was added to assay buffer containing inhibitor and the substrate (H-His-Lys-Ala-Arg-Val-Leu- (p-NO2) Phe-Glu-Ala-norleucine-Ser-NH2). The Leu- (p-NO2) Phe bond of the substrate was cleaved by the enzyme, and the substrate and products were separated by reversed-phase HPLC. Absorbance was measured at 220 nm, peak areas were determined, and percentage conversion to product was calculated.

Row | Compound | IC50
1 | O=c1oc(-c2ccc(O)cc2)cc(O)c1SCCc1ccccc1 [4-hydroxy-6-(4-hydroxyphenyl)-3-[(2-phenylethyl)sulfanyl]-2H-pyran-2-one] | 520 nM
2 | O=c1oc(-c2ccccc2)cc(O)c1SCCc1ccccc1 [4-hydroxy-6-phenyl-3-[(2-phenylethyl)sulfanyl]-2H-pyran-2-one] | 1300 nM
3 | O=C(O)COc1ccc(-c2cc(O)c(SCCc3ccccc3)c(=O)o2)cc1 [2-(4-{4-hydroxy-2-oxo-3-[(2-phenylethyl)sulfanyl]-2H-pyran-6-yl}phenoxy)acetic acid] | 160 nM
4 | O=C(O)c1cc(O)c(O)cc1C(=O)c1cc(Cl)ccc1Cl [2-[(2,5-dichlorophenyl)carbonyl]-4,5-dihydroxybenzoic acid] | 8100 nM
5 | CC(C)(C)c1ccccc1Sc1c(O)cc(-c2ccccc2)oc1=O [3-[(2-tert-butylphenyl)sulfanyl]-4-hydroxy-6-phenyl-2H-pyran-2-one] | 17 nM
6 | O=C(CCc1ccc(Br)cc1)c1ccc(CC(=O)c2ccccc2-c2ccccc2C(=O)O)cc1 [2-[2-(2-{4-[3-(4-bromophenyl)propanoyl]phenyl}acetyl)phenyl]benzoic acid] | 19000 nM
7 | O=c1oc2ccccc2c(O)c1Cc1ccccc1 [3-benzyl-4-hydroxy-2H-chromen-2-one] | 120000 nM
8 | O=C(CCCCC1CCCCC1)OCC(O)C1OC(=O)C(O)C1=O (stereo unspecified) [2-(3,4-dihydroxy-5-oxo-2,5-dihydrofuran-2-yl)-2-hydroxyethyl 5-cyclohexylpentanoate] | 29000 nM
9 | O=C(O)c1cc(-c2ccc(Cl)cc2)nc2cc(O)ccc12 [2-(4-chlorophenyl)-7-hydroxyquinoline-4-carboxylic acid] | 6900 nM
10 | CC(C)c1ccccc1Sc1c(O)cc(-c2ccccc2)oc1=O [4-hydroxy-6-phenyl-3-{[2-(propan-2-yl)phenyl]sulfanyl}-2H-pyran-2-one] | 37 nM
11 | O=c1oc(-c2ccccc2)cc(O)c1SCc1ccccc1 [3-(benzylsulfanyl)-4-hydroxy-6-phenyl-2H-pyran-2-one] | 1700 nM
12 | Cc1ccccc1Sc1c(O)cc(-c2ccccc2)oc1=O [4-hydroxy-3-[(2-methylphenyl)sulfanyl]-6-phenyl-2H-pyran-2-one] | 420 nM
13 | O=c1cc(Cc2cccc(Cl)c2)[nH][nH]1 [5-[(3-chlorophenyl)methyl]-2,3-dihydro-1H-pyrazol-3-one] | 29000 nM
14 | O=c1oc(-c2ccccc2)cc(O)c1Sc1ccccc1 | 3000 nM
15 | Cc1cccc(-c2cc(O)c(Sc3ccccc3C(C)(C)C)c(=O)o2)c1 [3-[(2-tert-butylphenyl)sulfanyl]-4-hydroxy-6-(3-methylphenyl)-2H-pyran-2-one] | 7 nM

same assay, conditions: pH 6.2; 37 °C

Row | Compound | IC50
16 | CC(C)c1ccccc1Sc1c(O)cc(-c2ccccc2)oc1=O [4-hydroxy-6-phenyl-3-{[2-(propan-2-yl)phenyl]sulfanyl}-2H-pyran-2-one] | 690 nM
